The subject of assay [1] is P. aeruginosa, E. coli and E. faecalis. Format: cell-based. The method, then: (§1) A CFU assay of the antibacterial activity of the peptides of the present invention against Pseudomonas aeruginosa ATCC (American Type Culture Collection, Manassas, VA, USA) 27853, Enterococcus faecalis ATCC 29212 and Escherichia coli ATCC 25922 was performed as follows. The strains were grown in aerobic conditions in tryptic soy broth (Difco Laboratories, Detroit, MI, USA) at 37°C and incubated in the presence of hBDs for 2 h at 37°C. We used two concentrations of peptides, i.e., 2.5 µM and 12.5 µM. For salt-dependence assay, 0, 50, 100 and 200 mM NaCl were included in the incubation buffer as previously described (1). Each assay was performed in triplicate. Bactericidal activity (mean and SD of three assays) is expressed as the ratio between colonies counted and the number of colonies on a control plate. The minimal inhibitory concentration (MIC) of the peptide SEQ ID No. 25 was determined with a modified version of the microbroth dilution assay of the National Committee for Clinical Laboratory Standards using a final inoculum of 10^5 CFU/ml. The following peptide concentrations were used: 100.0, 50.0, 25.0, 12.5, 6.25, 3.12 and 1.56 µM.

For assay [2], the system named is Enterococcus faecalis ATCC 29212. Format: cell-based. The settings on record: 12.5 µM. The method, then:
as §1

For assay [3], the system named is Escherichia coli ATCC 25922. Format: cell-based. The conditions noted are these: 12.5 µM. Here is the method: as §1
For assay [4], the system named is Pseudomonas aeruginosa ATCC 27853. Format: cell-based. The settings on record: 12.5 µM. The method, then: as §1
Assay [5] deals with HSV-1. Briefly: Inhibition of HSV infectivity on Vero cell monolayers (co-exposure, virus pre-exposure, cell pre-exposure, post-exposure). Format: cell-based. The method, then:
Vero cells were grown in Dulbecco's modified Eagle's medium (DMEM) supplemented with 10% fetal calf serum. HSV-1 carrying a lacZ gene driven by the cytomegalovirus (CMV) IE-1 promoter to express beta-galactosidase was propagated as described elsewhere (Galdiero S, Falanga A, Vitiello M, D'Isanto M, Cantisani M, Kampanaraki A, Benedetti E, Browne H, Galdiero M. Peptides. 2008 Sep;29(9):1461-71). All experiments were conducted in parallel with no-peptide controls. […] Non-penetrated viruses were inactivated by citrate buffer at pH 3.0. Monolayers were fixed, stained with 5-bromo-4-chloro-3-indolyl-beta-D-galactopyranoside (X-gal) and plaque numbers were scored. Experiments were performed in triplicate and the percentage of inhibition was calculated with respect to no-peptide control experiments; ii) For "virus pre-exposure" experiments, […] monolayers; iii) For "cell pre-exposure" experiments, Vero cells were incubated with 20 µM of peptides for 30 min at 4°C and infected with serial dilutions of HSV-1 for 45 min at 37°C; and iv) For "post-exposure" experiments, Vero cell monolayers were incubated with virus for 45 minutes at 37°C and afterwards the peptide was added to the inoculum followed by an additional incubation period of 30 minutes at 37°C.
The antiviral activity was evaluated in co-exposure experiments (with cell, virus, and peptide at zero time), virus pre-exposure experiments (virus plus peptide before cell infection), cell pre-exposure experiments (cell plus peptide before virus infection) and post-treatment (cell plus virus before peptide addition) in order to evaluate in which phase, if any, the peptides could inhibit virus infectivity. […] Both in the co-exposure and virus pre-treatment experiments, the oxidized SEQ. […]

Assay [6] deals with HSV-1. The conditions noted are these: reported elsewhere; cited from earlier work.

Bridge positions count the residues as written; N and C are the ends. Ends that are not written are not given here. Peptide text beside a SMILES is read from it.

In turn, `CC[C@H](C)[C@@H]1NC(=O)[C@H](CCCCN)NC(=O)[C@H]([C@@H](C)O)NC(=O)[C@H](Cc2ccccc2)NC(=O)[C@H]([C@@H](C)CC)NC(=O)[C@@H]2CCCN2C(=O)[C@@H](N)CSSC[C@@H](C(=O)NCC(=O)NCC(=O)N[C@@H](CCCNC(=N)N)C(=O)N[C@@H](CCCNC(=N)N)C(=O)N[C@@H](CCCCN)C(=O)N[C@@H](CCCCN)C(N)=O)NC(=O)[C@H]([C@@H](C)O)NC(=O)CNC(=O)[C@H](CCC(N)=O)NC1=O` [SEQ ID No. 25] (H-CPIFTKIQGTCGGRRKK-NH2; disulfide 1-11) showed an MIC in assay [1] of 12.5 to 25.0 µM.
Turning to “GIINTLQKYYCRVRGGRCAVLSCLPKEEQIGKCSTRGRKCCRRKK (disulfide 11-40, 18-33, 23-41 (inferred)) [hBD3]”, the antibacterial effect result in assay [2], in assay [3] and in assay [4] was “strong antibacterial effect” in each case. The Peptide inhibition in the assay on HSV-1 [5] (Cell Pre-treatment at 4°C, 1 uM) was found to be 53.5; in the assay with HSV-1 [5] (Cell Pre-treatment at 4°C, 5 uM), 41; with HSV-1 [5] (Cell Pre-treatment at 4°C, 10 uM), 27; with HSV-1 [5] (Cell Pre-treatment at 4°C, 20 uM), 22; in the assay on HSV-1 [5] (Cell Pre-treatment at 4°C, 50 uM), 18; in the assay on HSV-1 [5] (Cell Pre-treatment at 4°C, 150 uM) it was 1. Also, the Peptide inhibition is given as 5 with HSV-1 [5] (Cell Pre-treatment at 4°C, 1000 uM); 79 with HSV-1 [5] (Co-treatment at 37°C, 1 uM); 60 in the assay with HSV-1 [5] (Co-treatment at 37°C, 5 uM); 43 in the assay with HSV-1 [5] (Co-treatment at 37°C, 10 uM); 32 with HSV-1 [5] (Co-treatment at 37°C, 20 uM); 17.5 with HSV-1 [5] (Co-treatment at 37°C, 50 uM). Also, the Peptide inhibition with HSV-1 [5] (Co-treatment at 37°C, 150 uM) is listed as 6.5; in the assay with HSV-1 [5] (Co-treatment at 37°C, 1000 uM), 9; in the assay with HSV-1 [5] (Virus Pre-treatment at 37°C, 1 uM), 64; in the assay on HSV-1 [5] (Virus Pre-treatment at 37°C, 5 uM) it was 52; with HSV-1 [5] (Virus Pre-treatment at 37°C, 10 uM) it was 33; with HSV-1 [5] (Virus Pre-treatment at 37°C, 20 uM), 31. Moreover, the Peptide inhibition in the assay on HSV-1 [5] (Virus Pre-treatment at 37°C, 50 uM) worked out at 20; in the assay on HSV-1 [5] (Virus Pre-treatment at 37°C, 150 uM), 8.5; in the assay with HSV-1 [5] (Virus Pre-treatment at 37°C, 1000 uM) it was 10. Moreover, inhibition in the assay with HSV-1 [5] (antiviral activity against HSV-1 on Vero cells) was half-maximal at 10 µM (IC50). Further, the “antiviral activity of oxidized versus reduced form” value with HSV-1 [6] is “the same antiviral activity”.
In the case of “hBD1: human β-defensin 1, wild-type reference peptide (DHYNCVSSGGQCLYSACPIFTKIQGTCYRGKAKCCK; ends and bridges not checked; cysteine pairing not given here; UniProt P60022 33-68, looked up)”, the antibacterial effect result in assay [2], in assay [3] and in assay [4] was “strong antibacterial effect” in each case.

As usually defined, the MIC is the lowest concentration found to suppress growth. A high value points to a need for much substance. As a reminder, the IC50 is the concentration at which inhibition is half-maximal.

The record behind these values is patent publication EP2990415B1, “Cyclic beta defensins analogs for the treatment of infections” (Ceinge Biotecnologie Avanzate S.C. a R.L., priority 2014, dated 2016).
